Experimental data reported in US20250376483A1, “PRODRUGS OF PAN-KRAS INHIBITORS” (Mirati Therapeutics, Inc., priority 2022, published 2025).

Tests used:
[1] = Plasma Stability Assay (human plasma); assay type: in vitro ADME; details: both sexes; pooled human plasma, heparin, final conc. 2 μM, 37° C., 0-120 min; read-out: Human Plasma Stability t1/2
Method: This Example illustrates that exemplary compounds of the present invention is cleavage in human plasma.
(§1) Test Compounds and Stock Solutions: Stock Conc. 10 mM; Final Conc. 2 μM
(§2) Test Compound and Control Working Solution Preparation:
• Test compound intermediate solution: 10 μL of compound stock solution (10 mM in dimethyl sulfoxide (DMSO)) were diluted with 90 μL of DMSO (intermediate solution concentration: 1 mM, 100% DMSO) • Control intermediate solution: 10 μL of control stock solution (10 mM in dimethyl sulfoxide (DMSO)) were diluted with 90 μL of DMSO (intermediate solution concentration: 1 mM, 100% DMSO) • Species/Matrix: Human Plasma • No. of Individuals: 3 Male & 3 Female • Anticoagulant Used: Heparin
• The pooled frozen plasma was thawed in a water bath at 37° C. prior to experiment. Plasma was centrifuged at 4000 rpm for 5 min and the clots were removed if any. • Using an Apricot automation workstation, 98 μL/well of blank plasma were added to all 96-well reaction plates. (Blank, T0, T10, T30, T60 and T120) • An Apricot automation workstation was used to add 2 μL/well of working solution (100 μM) to all reaction plates except Blank. (T0, T10, T30, T60 and T120) • All reaction plates containing mixtures of compound and plasma were incubated at 37° C. in water bath. • The reaction plates were incubated at 37° C., and timer was started. • At the end of incubation, added 500 μL of stop solution (200 ng/mL tolbutamide and 200 ng/mL labetalol in ACN) to precipitate protein. Mixed thoroughly. • Each plate was sealed and shaken for 20 minutes. • After shaking, each plate was centrifuged at 4000 rpm and 4° C. for 20 minutes • After centrifugation, an Apricot automation workstation was used to transfer 50 μL supernatant into 100 μL HPLC water. • Each bioanalysis plate was sealed and shaken for 10 minutes prior to LC-MS/MS analysis Data Analysis • The % remaining of test compound after incubation in blood was calculated using following equation:
(§3) [formula] • where PAR is the peak area ratio of analyte versus internal standard (IS) • The appointed incubation time points are TO (0 min), Tn (n=0, 10, 30, 60 and 120 min)

[2] = Whole Blood Stability Assay (mouse whole blood); assay type: in vitro ADME; details: CD-1 mouse blood, EDTA-K2, final conc. 2 μM, 37° C., 0-120 min; for half-life at 2 μM: male, fresh whole blood, read-out: Mouse Whole Blood Stability t1/2
Method: Whole Blood Stability Assay
This Example illustrates that exemplary compounds of the present invention is cleavage in mouse whole blood.
as §1, §2
• Intermediate solution: 5 μL of compound stock solution (10 mM in dimethyl sulfoxide (DMSO)) were diluted with […] of DMSO (intermediate solution concentration: 1 mM, 100% DMSO) • Propantheline bromide (control) intermediate solution: 5 μL of propantheline stock solution (10 mM in ultra-pure water) were diluted with 45 μL of ultra-pure water (intermediate solution concentration: 1 mM) • Working solution 1: 20 μL of test compound intermediate solution (1 mM) were diluted with 180 μL of 45% ACN/H2O (working solution concentration: […], 40.5% ACN, 10% DMSO) • Working solution 2: 20 μL of control intermediate solution (1 mM) were diluted with 180 μL of 45% ACN/H2O (working solution concentration: 100 μM, 40.5% ACN, 10% DMSO) • Species/Matrix: CD-1 Mouse Blood • No. of Individuals: n>3 Male • Anticoagulant Used: EDTA-K2
• The fresh blood was collected on the day of experiment and pre-warmed in a water bath at 37° C. • Using an Apricot automation workstation, 98 μL/well of blank blood were added to all 96-well reaction plates (Blank, T0, T10, T30, T60 and T120). • An Apricot automation workstation was used to add 2 μL/well of working solution (100 μM) to all reaction plates except Blank (T0, T10, T30, T60 and T120). • All reaction plates containing mixtures of compound and blood were incubated at 37° C. in water bath. • The reaction plates were incubated at 37° C., and timer was started. • At the end of incubation, mixed 100 μL water with 100 μL spiked blood samples, then added 800 μL of stop solution (200 ng/mL tolbutamide and 200 ng/mL labetalol in ACN) to precipitate protein. Mixed thoroughly. • Each plate was sealed and shaken for 20 minutes. • After shaking, each plate was centrifuged at 4000 rpm and 4° C. for 20 minutes. • After centrifugation, an Apricot automation workstation was used to transfer 150 μL of supernatant from each reaction plate to its corresponding bioanalysis plate. • Each bioanalysis plate was submitted to LC-MS/MS analysis.
• The % remaining of test compound after incubation in blood was calculated using following equation:
as §3

Compound | half-life at 2 μM [1] [min] | half-life at 2 μM [2] [min] | Mouse Whole Blood Stability t1/2 [2] [min]
CCc1c(F)ccc2cc(OC(=O)C(C)(C)C)cc(-c3ncc4c(N5C[C@@H]6C[C@H](C5)[C@H](O)C6)nc(OC[C@@]56CCCN5C[C@H](F)C6)nc4c3F)c12 [Example 5, 5-ethyl-6-fluoro-4-(8-fluoro-2-(((2R,7aS)-2-fluorotetrahydro-1H-pyrrolizin-7a(5H)-yl)methoxy)-4-((1R,5R,6R)-6-hydroxy-3-azabicyclo[3.2.1]octan-3-yl)pyrido[4,3-d]pyrimidin-7-yl)naphthalen-2-yl pivalate] | 67 | 2 | –
CCc1c(F)ccc2cc(OC(=O)N(C)C)cc(-c3ncc4c(N5C[C@@H]6C[C@H](C5)[C@H](O)C6)nc(OC[C@@]56CCCN5C[C@H](F)C6)nc4c3F)c12 [Example 6, 5-ethyl-6-fluoro-4-(8-fluoro-2-(((2R,7aS)-2-fluorotetrahydro-1H-pyrrolizin-7a(5H)-yl)methoxy)-4-((1R,5R,6R)-6-hydroxy-3-azabicyclo[3.2.1]octan-3-yl)pyrido[4,3-d]pyrimidin-7-yl)naphthalen-2-yl dimethylcarbamate] | > 289 | > 289 | –
CCc1c(F)ccc2cc(OC(=O)N3CCCCC3)cc(-c3ncc4c(N5C[C@@H]6C[C@H](C5)[C@H](O)C6)nc(OC[C@@]56CCCN5C[C@H](F)C6)nc4c3F)c12 [Example 7, 5-ethyl-6-fluoro-4-(8-fluoro-2-(((2R,7aS)-2-fluorotetrahydro-1H-pyrrolizin-7a(5H)-yl)methoxy)-4-((1R,5R,6R)-6-hydroxy-3-azabicyclo[3.2.1]octan-3-yl)pyrido[4,3-d]pyrimidin-7-yl)naphthalen-2-yl piperidine-1-carboxylate] | > 289 | > 289 | –
CCOC(=O)Oc1cc(-c2ncc3c(N4C[C@@H]5C[C@H](C4)[C@H](O)C5)nc(OC[C@@]45CCCN4C[C@H](F)C5)nc3c2F)c2c(CC)c(F)ccc2c1 [Example 12, ethyl (5-ethyl-6-fluoro-4-(8-fluoro-2-(((2R,7aS)-2-fluorotetrahydro-1H-pyrrolizin-7a(5H)-yl)methoxy)-4-((1R,5R,6R)-6-hydroxy-3-azabicyclo[3.2.1]octan-3-yl)pyrido[4,3-d]pyrimidin-7-yl)naphthalen-2-yl) carbonate] | 26 | < 5 | –
CCCCCC(=O)Oc1cc(-c2ncc3c(N4C[C@@H]5C[C@H](C4)[C@H](O)C5)nc(OC[C@@]45CCCN4C[C@H](F)C5)nc3c2F)c2c(CC)c(F)ccc2c1 [Example 18, 5-ethyl-6-fluoro-4-(8-fluoro-2-(((2R,7aS)-2-fluorotetrahydro-1H-pyrrolizin-7a(5H)-yl)methoxy)-4-((1R,5R,6R)-6-hydroxy-3-azabicyclo[3.2.1]octan-3-yl)pyrido[4,3-d]pyrimidin-7-yl)naphthalen-2-yl hexanoate] | 44 | < 5 | –

The next lines start with the values.

half-life at 2 μM [1] [min] | half-life at 2 μM [2] [min] | Mouse Whole Blood Stability t1/2 [2] [min] | Compound
17 | 5 | – | CCc1c(F)ccc2cc(OC(=O)C3CC3)cc(-c3ncc4c(N5C[C@@H]6C[C@H](C5)[C@H](O)C6)nc(OC[C@@]56CCCN5C[C@H](F)C6)nc4c3F)c12 [Example 4, 5-ethyl-6-fluoro-4-(8-fluoro-2-(((2R,7aS)-2-fluorotetrahydro-1H-pyrrolizin-7a(5H)-yl)methoxy)-4-((1R,5R,6R)-6-hydroxy-3-azabicyclo[3.2.1]octan-3-yl)pyrido[4,3-d]pyrimidin-7-yl)naphthalen-2-yl cyclopropanecarboxylate]
9 | – | 1 | CCc1c(F)ccc2cc(OC(=O)OC)cc(-c3ncc4c(N5C[C@@H]6C[C@H](C5)[C@H](O)C6)nc(OC[C@@]56CCCN5C[C@H](F)C6)nc4c3F)c12 [Example 9, 5-ethyl-6-fluoro-4-(8-fluoro-2-(((2R,7aS)-2-fluorotetrahydro-1H-pyrrolizin-7a(5H)-yl)methoxy)-4-((1R,5R,6R)-6-hydroxy-3-azabicyclo[3.2.1]octan-3-yl)pyrido[4,3-d]pyrimidin-7-yl)naphthalen-2-yl methyl carbonate]
46 | < 5 | – | CCCC(=O)Oc1cc(-c2ncc3c(N4C[C@@H]5C[C@H](C4)[C@H](O)C5)nc(OC[C@@]45CCCN4C[C@H](F)C5)nc3c2F)c2c(CC)c(F)ccc2c1 [Example 11, 5-ethyl-6-fluoro-4-(8-fluoro-2-(((2R,7aS)-2-fluorotetrahydro-1H-pyrrolizin-7a(5H)-yl)methoxy)-4-((1R,5R,6R)-6-hydroxy-3-azabicyclo[3.2.1]octan-3-yl)pyrido[4,3-d]pyrimidin-7-yl)naphthalen-2-yl butyrate]
16 | 6 | – | CCc1c(F)ccc2cc(OC(=O)C3CCC3)cc(-c3ncc4c(N5C[C@@H]6C[C@H](C5)[C@H](O)C6)nc(OC[C@@]56CCCN5C[C@H](F)C6)nc4c3F)c12 [Example 13, 5-ethyl-6-fluoro-4-(8-fluoro-2-(((2R,7aS)-2-fluorotetrahydro-1H-pyrrolizin-7a(5H)-yl)methoxy)-4-((1R,5R,6R)-6-hydroxy-3-azabicyclo[3.2.1]octan-3-yl)pyrido[4,3-d]pyrimidin-7-yl)naphthalen-2-yl cyclobutanecarboxylate]
146 | < 5 | – | CCc1c(F)ccc2cc(OC(=O)OC(C)C)cc(-c3ncc4c(N5C[C@@H]6C[C@H](C5)[C@H](O)C6)nc(OC[C@@]56CCCN5C[C@H](F)C6)nc4c3F)c12 [Example 15, 5-ethyl-6-fluoro-4-(8-fluoro-2-(((2R,7aS)-2-fluorotetrahydro-1H-pyrrolizin-7a(5H)-yl)methoxy)-4-((1R,5R,6R)-6-hydroxy-3-azabicyclo[3.2.1]octan-3-yl)pyrido[4,3-d]pyrimidin-7-yl)naphthalen-2-yl isopropyl carbonate]
41 | – | 1 | CCc1c(F)ccc2cc(OC(=O)C3CCCC3)cc(-c3ncc4c(N5C[C@@H]6C[C@H](C5)[C@H](O)C6)nc(OC[C@@]56CCCN5C[C@H](F)C6)nc4c3F)c12 [Example 17, 5-ethyl-6-fluoro-4-(8-fluoro-2-(((2R,7aS)-2-fluorotetrahydro-1H-pyrrolizin-7a(5H)-yl)methoxy)-4-((1R,5R,6R)-6-hydroxy-3-azabicyclo[3.2.1]octan-3-yl)pyrido[4,3-d]pyrimidin-7-yl)naphthalen-2-yl cyclopentanecarboxylate]
> 289 | 3 | – | CCc1c(F)ccc2cc(OC(=O)OC(C)(C)C)cc(-c3ncc4c(N5C[C@@H]6C[C@H](C5)[C@H](O)C6)nc(OC[C@@]56CCCN5C[C@H](F)C6)nc4c3F)c12 [Example 19, tert-butyl (5-ethyl-6-fluoro-4-(8-fluoro-2-(((2R,7aS)-2-fluorotetrahydro-1H-pyrrolizin-7a(5H)-yl)methoxy)-4-((1R,5R,6R)-6-hydroxy-3-azabicyclo[3.2.1]octan-3-yl)pyrido[4,3-d]pyrimidin-7-yl)naphthalen-2-yl) carbonate]
